We go through 3 compounds from PMC6941357, “An in vitro toolbox to accelerate anti-malarial drug discovery and development” (Malaria Journal, 2020).

One may read the microsomal CLint as the rate of metabolic loss divided by the concentration. Broadly, the fraction unbound is free concentration divided by total concentration. What is called solubility is how much of the substance goes into solution per volume. As a reminder, the IC50 is the concentration that inhibits the measured activity by half. The inhibition is the percentage by which the read-out fell short of the control. Read a high inhibition as a strong effect. As a reminder, the Ki is the dissociation constant of the complex between target and ligand, obtained from inhibition or displacement. Low readings indicate tighter binding, high ones weaker binding.

Data set [1] can be described thus: In vitro metabolism (metabolic stability) in human liver microsomes. The settings on record: human, pH 7.4, HLM CLint. Put shortly:
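Compound depletion in human liver microsomes was followed by LC–MS at 2–60 min, with cofactor-free controls. First-order depletion rate constants gave in vitro CLint (µL/min/mg protein), corrected to unbound CLint using measured microsomal fu.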
In general terms: Liver microsomes are vesicles of endoplasmic reticulum, rich in cytochrome P450 enzymes.

The nature of data set [2]: Plasma protein binding via ultracentrifugation (UC). It is filed as in vitro ADME, human. The settings on record: human, neat pooled plasma, pH 7.4; ultracentrifugation, neat plasma; read-out: Fraction unbound, human plasma. Put shortly: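 Pooled human plasma (3–4 donors) spiked and ultracentrifuged; protein-free supernate gave Cunbound, parallel tubes kept at 37 °C gave Ctotal and stability (start vs end). Samples matrix-matched 1:1 with opposite blank and quantified against a common calibration curve; fu SD by error propagation.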

The nature of data set [3]: Binding to human liver microsomes via ultracentrifugation. It is filed as in vitro ADME. The settings on record: human, liver microsomes, pH 7.4, 0.4 mg/mL protein, read-out: Fraction unbound, HLM. The procedure, abridged: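 Unbound fraction by ultracentrifugation: Cunbound measured in protein-free supernate, Ctotal from spiked tubes held at 37 °C, sampled at start and end to check degradation. Matrix was 0.4 mg/mL human liver microsomal protein, 0.1 M phosphate pH 7.4; matrix-matched analysis against one calibration curve.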

Data set [4] can be described thus: Solubility limited absorbable dose (SLAD) calculation with predicted human jejunal Peff. The settings on record: for solubility: FaSSIF; for An (absorption number): Peff × tres/R, minimum 1; for SLAD: Ssi × V (500 mL) × Mp; for Permeability classification: based on ref 80 and control compounds; for Predicted human Peff: from Caco-2 Papp via calibration plot. An excerpt: Predicted Peff values were obtained from a calibration plot of literature Peff values vs measured Caco-2 Papp using either buffer or plasma as the transport medium (see Results section).

The target of another data set is CYP2C9 (Homo sapiens, UniProt P11712). Briefly: Cytochrome P450 inhibition in human liver microsomes. The procedure, abridged:
(§1)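 Each compound is incubated with human liver microsomes and a probe substrate whose conversion is mediated by one CYP isoform. Reactions are then quenched with ice-cold acetonitrile, and the metabolite is determined by LC–MS.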

The target in a further data set is CYP3A4 (Homo sapiens, UniProt P08684). The description is as above. The settings on record: for inhibition at 20 µM: human, human liver microsomes, at max conc, nmi = no measurable inhibition. The procedure, abridged:
as §1

Another data set addresses CYP2D6 (Homo sapiens, UniProt P10635). The data set is described as above. Put shortly: as §1
The next data set has as its target T1, CYP1A2 (Homo sapiens, UniProt P05177).
T1 sequence (P05177 1-516): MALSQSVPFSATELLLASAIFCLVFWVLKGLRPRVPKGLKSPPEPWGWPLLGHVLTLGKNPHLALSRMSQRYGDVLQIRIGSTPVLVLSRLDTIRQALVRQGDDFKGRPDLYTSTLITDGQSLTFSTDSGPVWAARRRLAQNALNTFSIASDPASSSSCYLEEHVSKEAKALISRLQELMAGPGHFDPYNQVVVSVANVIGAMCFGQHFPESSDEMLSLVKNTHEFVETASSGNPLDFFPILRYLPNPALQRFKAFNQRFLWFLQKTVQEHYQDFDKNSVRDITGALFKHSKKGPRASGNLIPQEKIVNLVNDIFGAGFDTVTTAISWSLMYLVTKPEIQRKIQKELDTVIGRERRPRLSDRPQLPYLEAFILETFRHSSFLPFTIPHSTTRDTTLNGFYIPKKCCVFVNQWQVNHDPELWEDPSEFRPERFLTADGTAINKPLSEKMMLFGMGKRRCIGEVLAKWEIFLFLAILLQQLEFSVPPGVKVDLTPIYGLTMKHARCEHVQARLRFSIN
Described as above. The procedure, abridged: as §1

In another data set the target is CYP2C19 (Homo sapiens, UniProt P33261). The description is as above. The procedure, abridged: as §1
[5] abbreviates: liver microsomes, human liver microsomes, average of n = 2 replicates, < 7 means < 15% loss over 60 min.
The mark [6] stands for this setting: human liver microsomes, at max conc, nmi = no measurable inhibition.

In brackets after ≈: the same amount, converted by molar mass.

Sequence of CYP2D6 (P10635 whole entry): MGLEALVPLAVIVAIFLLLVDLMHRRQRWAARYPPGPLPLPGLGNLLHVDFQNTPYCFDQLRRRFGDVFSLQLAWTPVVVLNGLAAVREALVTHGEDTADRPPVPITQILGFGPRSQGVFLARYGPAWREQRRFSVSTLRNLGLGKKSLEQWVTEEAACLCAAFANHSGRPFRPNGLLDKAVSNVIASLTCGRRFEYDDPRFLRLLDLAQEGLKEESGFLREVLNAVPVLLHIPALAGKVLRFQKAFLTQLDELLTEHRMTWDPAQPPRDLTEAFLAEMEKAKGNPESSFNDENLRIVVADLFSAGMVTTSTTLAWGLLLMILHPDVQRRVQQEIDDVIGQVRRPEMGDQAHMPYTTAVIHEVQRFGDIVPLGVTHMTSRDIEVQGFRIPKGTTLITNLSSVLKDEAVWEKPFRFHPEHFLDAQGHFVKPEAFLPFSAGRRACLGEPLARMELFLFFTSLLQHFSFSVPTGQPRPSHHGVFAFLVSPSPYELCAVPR
Sequence of CYP3A4 (P08684 whole entry): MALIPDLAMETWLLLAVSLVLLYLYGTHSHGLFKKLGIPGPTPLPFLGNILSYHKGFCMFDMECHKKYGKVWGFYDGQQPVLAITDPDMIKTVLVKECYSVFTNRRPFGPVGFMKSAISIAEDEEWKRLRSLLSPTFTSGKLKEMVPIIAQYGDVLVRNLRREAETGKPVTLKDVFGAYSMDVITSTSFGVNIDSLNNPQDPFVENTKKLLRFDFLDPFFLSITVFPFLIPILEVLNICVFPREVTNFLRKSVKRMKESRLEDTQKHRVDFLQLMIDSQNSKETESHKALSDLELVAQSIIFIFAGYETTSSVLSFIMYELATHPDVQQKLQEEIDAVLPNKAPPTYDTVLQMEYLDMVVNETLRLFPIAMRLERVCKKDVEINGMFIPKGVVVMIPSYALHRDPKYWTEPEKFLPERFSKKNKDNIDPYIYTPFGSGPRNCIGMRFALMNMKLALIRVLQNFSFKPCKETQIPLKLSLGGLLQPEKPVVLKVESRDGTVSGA
Sequence of CYP2C19 (P33261 whole entry): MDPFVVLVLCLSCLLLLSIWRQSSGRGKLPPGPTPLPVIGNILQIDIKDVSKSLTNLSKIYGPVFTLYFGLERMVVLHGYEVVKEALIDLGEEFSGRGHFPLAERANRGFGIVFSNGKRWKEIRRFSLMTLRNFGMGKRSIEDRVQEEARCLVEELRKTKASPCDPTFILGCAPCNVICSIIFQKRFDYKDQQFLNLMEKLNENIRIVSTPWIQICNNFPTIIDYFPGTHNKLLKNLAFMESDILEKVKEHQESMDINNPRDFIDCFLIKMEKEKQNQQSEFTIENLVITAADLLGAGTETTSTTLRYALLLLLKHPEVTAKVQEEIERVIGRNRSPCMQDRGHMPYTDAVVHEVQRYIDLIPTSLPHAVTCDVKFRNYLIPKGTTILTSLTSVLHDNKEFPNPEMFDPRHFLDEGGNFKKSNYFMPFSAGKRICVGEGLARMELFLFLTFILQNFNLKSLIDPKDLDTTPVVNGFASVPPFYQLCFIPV
Sequence of CYP2C9 (P11712 whole entry, canonical isoform): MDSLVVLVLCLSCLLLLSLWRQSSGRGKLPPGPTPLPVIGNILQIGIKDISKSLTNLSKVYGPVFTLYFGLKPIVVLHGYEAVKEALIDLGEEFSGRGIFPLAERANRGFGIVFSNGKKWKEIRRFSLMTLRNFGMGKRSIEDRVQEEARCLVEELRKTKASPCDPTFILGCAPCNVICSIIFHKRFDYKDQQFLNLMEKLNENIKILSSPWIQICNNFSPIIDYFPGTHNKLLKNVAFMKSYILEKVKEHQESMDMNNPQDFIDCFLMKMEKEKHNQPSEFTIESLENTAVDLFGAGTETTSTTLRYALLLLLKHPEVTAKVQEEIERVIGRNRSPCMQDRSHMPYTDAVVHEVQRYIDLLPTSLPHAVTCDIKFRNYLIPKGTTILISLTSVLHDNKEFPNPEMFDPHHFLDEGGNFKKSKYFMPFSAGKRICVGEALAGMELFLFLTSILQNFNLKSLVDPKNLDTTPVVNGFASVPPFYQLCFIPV

For `CS(=O)(=O)c1ccc(-c2cnc(N)c(-c3ccc(C(F)(F)F)nc3)c2)cc1` [MMV048], the microsomal CLint at 1 µM in data set [1] (setting [5]) was less than 7 µL/min/mg. Moreover, the fraction unbound at […] in data set [2] worked out at 0.17; in [3] it was 0.61 ± 0.014. In addition, the solubility in data set [4] was 6.7 µg/mL (≈ 17 µM). For the same compound, in [4], the “An (absorption number)” value is given as 4.5. In data set [4], the SLAD is 15 mg. In addition, in data set [4], the Permeability classification entry is reported as “High (> 85% absorption (high))”. The “Predicted human Peff” value in data set [4] is on record as 3.8 10^−4 cm/s. In addition, the half-maximal inhibitory concentration (IC50) against CYP2C9 was more than 20 µM; against CYP3A4 (CYP3A4 (test) IC50, human liver microsomes, CYP3A4 (test), highest concentration tested 20 µM), more than 20 µM; at CYP2D6, more than 20 µM; at CYP1A2 it was more than 20 µM; against CYP2C19, more than 20 µM. Moreover, the “CYP2C9 % inhibition at max conc” value at CYP2C9 (microsomes) is “nmi”. At CYP3A4 (microsomes), the “CYP3A4 (test) % inhibition at max conc” value is reported as “nmi”. In addition, 20 µM produced 16% inhibition against CYP2D6 (human, microsomes, pH 7.4). At CYP1A2 (microsomes), the “CYP1A2 % inhibition at max conc” value was “nmi”. For the same compound, the “CYP2C19 % inhibition at max conc” value on CYP2C19 (microsomes) is “nmi”.

In data set [1] (setting [5]), `O=C1C(O)=C([C@H]2CC[C@H](c3ccc(Cl)cc3)CC2)C(=O)c2ccccc21` [Atovaquone] displayed a microsomal CLint at 1 µM of less than 7 µL/min/mg. The fraction unbound at […] in data set [2] was found to be 0.002. The fraction unbound at […] in data set [3] was approximately 0.002. Moreover, in data set [4], the solubility is 1.83 µg/mL (≈ 4.99 µM), the “An (absorption number)” value is listed as 13, the SLAD is on record as 12 mg and the Permeability classification result is “High (> 85% absorption (high))”. Further, the “Predicted human Peff” value in data set [4] is reported as 11 10^−4 cm/s. At CYP2C9, the IC50 is more than 20 µM. On CYP2C9 (human, microsomes, pH 7.4), this compound returned an inhibition at 20 µM of 26%. Also, at CYP3A4 (microsomes), the “CYP3A4 (midaz) % inhibition at max conc” value is listed as “nmi” and the “CYP3A4 (test) % inhibition at max conc” value is “nmi”. Besides, on CYP2D6, the IC50 is more than 20 µM. Moreover, the “CYP2D6 % inhibition at max conc” value on CYP2D6 (microsomes) is recorded as “nmi”. For the same compound, the IC50 at CYP1A2 was more than 20 µM. Also, the “CYP1A2 % inhibition at max conc” value on CYP1A2 (microsomes) is reported as “nmi”. This compound gave an IC50 against CYP2C19 of more than 20 µM. The “CYP2C19 % inhibition at max conc” value at CYP2C19 (microsomes) is reported as “nmi”.

`CCCCN(CCCC)CCC(O)c1cc2c(Cl)cc(Cl)cc2c2cc(C(F)(F)F)ccc12` (stereo not drawn) [Halofantrine] gave a microsomal CLint at 1 µM in [1] (microsomes) of 26.9 µL/min/mg. Besides, the figures for the fraction unbound at […] in data set [2] and in data set [3] were 0.13 and 0.002 ± 0.0002, respectively. The solubility in data set [4] is 69.9 µg/mL (≈ 140 µM). The “An (absorption number)” value in data set [4] is reported as 13. The SLAD in data set [4] was 466 mg. For the same compound, in [4], the Permeability classification result is listed as “High (> 85% absorption (high))”. Moreover, the “Predicted human Peff” value in [4] is given as 11 10^−4 cm/s. In addition, the IC50 against CYP2C9 is more than 20 µM; at CYP2D6 it was 0.27 µM; at CYP1A2, more than 20 µM; at CYP2C19 it was more than 20 µM. Further, at CYP2C9 (setting [6]), the “CYP2C9 % inhibition at max conc” value is listed as “nmi”. Also, the inhibition at 20 µM amounted to 24% against CYP3A4 (microsomes, pH 7.4, CYP3A4 (midaz) % inhibition at max conc, CYP3A4 (midaz)) and 19% against CYP3A4 (microsomes, pH 7.4, CYP3A4 (test) % inhibition at max conc, CYP3A4 (test)). The same compound came in with an inhibition constant (Ki) on CYP2D6 of 0.19 µM. Moreover, the “CYP1A2 % inhibition at max conc” value on CYP1A2 (setting [6]) was “nmi”. Also, the “CYP2C19 % inhibition at max conc” value on CYP2C19 (setting [6]) is “nmi”.
